Measurements as given in patent publication US11000033B2, “Ketone or oxime compound, and herbicide” (NISSAN CHEMICAL CORPORATION, priority 2014, dated 2021).

Tests used:
Assay type in all cases: in vivo
Chenopodium album = assay: Test Example 5: herbicidal effect by foliage application, plastic box (symbol O); conditions: 320 g/ha, 3 weeks after application
Procedure, shortened: (§1)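 After sowing into sterilized diluvial soil and growing two weeks under glass at 25° C. to 30° C., seedlings receive a uniform foliar spray of diluted emulsion. Damage is judged visually three weeks on.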

Scirpus juncoides = assay: Test Example 2: herbicidal activity, application during weed generation in submerged conditions (symbol B); conditions: Table 23; application herbicide amount 320 g/ha; grade 0-5 by criteria of Test Example 1
Procedure, shortened: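 Scoring of herbicidal effect took place 3 weeks after treatment, using the criteria of the earlier test. Treatment was water-surface application of diluted emulsifiable compound at a set dose. Plants were at one- to two-leaf stage in submerged alluvial soil (4 cm depth), greenhouse 25-30° C.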

Avena fatua = assay: Test Example 5: herbicidal effect by foliage application, plastic box (symbol I); conditions: 320 g/ha, 3 weeks after application
Procedure, shortened: as §1

Lolium multiflorum Lam. = assay: Test Example 5: herbicidal effect by foliage application, plastic box (symbol K); conditions: 320 g/ha, 3 weeks after application
Procedure, shortened: as §1

Cyperus difformis = assay: Test Example 3: herbicidal effect by foliage application, Wagner pot (symbol E); conditions: application herbicide amount 320 g/ha
Procedure, shortened: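 Foliar spray of a water-diluted emulsion at a predetermined herbicide amount, applied to 14-day-old plants. Seedlings were raised in flooded alluvial soil (0.1–0.5 cm water) at 25–30 °C in a greenhouse. Injury was rated after 3 weeks against fixed criteria.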

soybean = assay: Test Example 4: effect on crop by soil treatment (symbol d); conditions: application herbicide amount 320 g/ha
Procedure, shortened: (§2)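 Steps: fill box with sterilized diluvial soil; sow seed spot-like; cover with ~1.5 cm soil; grow in greenhouse (25° C. to 30° C.).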

[1] = tested on: directly sowed rice plant; assay: Test Example 3: effect on crop by foliage application, Wagner pot (symbol b); conditions: application herbicide amount 320 g/ha
Procedure, shortened: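 Greenhouse culture at 25–30 °C of seeded rice, Cyperus difformis, Leptochloa chinensis and Echinochloa crus-galli var. crus-galli, in alluvial soil held under 0.1–0.5 cm of water in a Wagner pot.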

[2] = tested on: Echinochloa oryzacola Vasing.; assay: Test Example 1: herbicidal activity, application before weed generation in submerged conditions (symbol A); conditions: application herbicide amount 320 g/ha
Procedure, shortened: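 0–5 visual score, 3 wk post-application. Submerged pots, alluvial soil, water 4 cm; seeds sown mixed, rice at 2.5 leaves transplanted. Emulsion diluted to predetermined dose, applied to water surface at sowing. 25–30 °C greenhouse.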

corn = assay: Test Example 5: effect on crop by foliage application, plastic box (symbol c); conditions: 320 g/ha, 3 weeks after application
Procedure, shortened: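 Greenhouse test at 25° C. to 30° C. Seeds of crops and weeds were spot-sown in boxes of sterilized diluvial soil under roughly 1.5 cm soil cover, then grown for foliage treatment.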

rice = assay: Test Example 4: effect on crop by soil treatment (symbol b); conditions: application herbicide amount 320 g/ha
Procedure, shortened: as §2

transplanted rice plant = assay: Test Example 1: effect on crop, application before weed generation in submerged conditions (symbol a); conditions: application herbicide amount 320 g/ha
Procedure, shortened: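 Alluvial soil pots flooded to 4 cm water, sown with Echinochloa oryzacola, Scirpus juncoides and Monochoria vaginalis, then transplanted with 2.5 leaf stage rice seedlings; pre-emergence application. Greenhouse 25° C. to 30° C.; scored 0–5 by herbicidal ratio 3 weeks after application.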

wheat = assay: Test Example 4: effect on crop by soil treatment (symbol e); conditions: application herbicide amount 320 g/ha
Procedure, shortened: as §2

## CON=C(C)CC1CC(OC(=O)COc2ccccc2[N+](=O)[O-])=C(c2c(C)cc(C)cc2C)C1=O (centres unmarked) [1-071]
Chenopodium album
  O: Chenopodium album, herbicidal effect grade: 1 (Herbicidal ratio of 5% or higher and lower than 20%)
Scirpus juncoides
  Herbicidal effect grade, B: Scirpus juncoides: 3 (Herbicidal ratio of 40% or higher and lower than 70%)
Avena fatua
  I: Avena fatua, herbicidal effect grade: 5 (Herbicidal ratio of 90% or more (almost completely withered))
Lolium multiflorum Lam.
  K: Lolium multiflorum Lam., herbicidal effect grade: 3 (Herbicidal ratio of 40% or higher and lower than 70%)
Cyperus difformis
  herbicidal effect on E, grade 0-5: 5 (Herbicidal ratio of 90% or more (almost completely withered))
soybean
  d (soybean) effect on crop grade: 0 (Herbicidal ratio of 5% or lower (almost no effect))
[1]
  effect on crop b (directly sowed rice plant), grade 0-5: 5 (Herbicidal ratio of 90% or more (almost completely withered))
[2]
  Herbicidal effect grade, A: Echinochloa oryzacola Vasing.: 5 (Herbicidal ratio of 90% or more (almost completely withered))
corn
  c: corn, effect on crop grade: 5 (Herbicidal ratio of 90% or more (almost completely withered))
rice
  b (directly sowed rice plant) effect on crop grade: 5 (Herbicidal ratio of 90% or more (almost completely withered))
Transplanted rice plant
  Effect grade on crop, a: transplanted rice plant: 5 (Herbicidal ratio of 90% or more (almost completely withered))
wheat
  e (wheat) effect on crop grade: 4 (Herbicidal ratio of 70% or higher and lower than 90%)

## CON=C(C)CC1CC(OC(=O)COc2cccc(C#N)c2)=C(c2c(C)cc(C)cc2C)C1=O (centres unmarked) [1-074]
Chenopodium album
  O: Chenopodium album, herbicidal effect (criteria 0-5): 2 (Herbicidal ratio of 20% or higher and lower than 40%)
Scirpus juncoides
  Herbicidal effect grade, B: Scirpus juncoides: 4 (Herbicidal ratio of 70% or higher and lower than 90%)
Avena fatua
  I: Avena fatua, herbicidal effect (criteria 0-5): 5 (Herbicidal ratio of 90% or more (almost completely withered))
Lolium multiflorum Lam.
  K: Lolium multiflorum Lam., herbicidal effect (criteria 0-5): 5 (Herbicidal ratio of 90% or more (almost completely withered))
Cyperus difformis
  herbicidal effect on E, grade 0-5: 5 (Herbicidal ratio of 90% or more (almost completely withered))
soybean
  d (soybean) effect on crop grade: 0 (Herbicidal ratio of 5% or lower (almost no effect))
[1]
  effect on crop b (directly sowed rice plant), grade 0-5: 5 (Herbicidal ratio of 90% or more (almost completely withered))
[2]
  Herbicidal effect grade, A: Echinochloa oryzacola Vasing.: 5 (Herbicidal ratio of 90% or more (almost completely withered))
corn
  c: corn, effect on crop (criteria 0-5): 5 (Herbicidal ratio of 90% or more (almost completely withered))
rice
  b (directly sowed rice plant) effect on crop grade: 5 (Herbicidal ratio of 90% or more (almost completely withered))
Transplanted rice plant
  Effect grade on crop, a: transplanted rice plant: 5 (Herbicidal ratio of 90% or more (almost completely withered))
wheat
  e (wheat) effect on crop grade: 4 (Herbicidal ratio of 70% or higher and lower than 90%)

## CON=C(C)CC1CC(OC(=O)COc2ccc(Cl)cc2Cl)=C(c2c(C)cc(C)cc2C)C1=O (centres unmarked) [1-075]
Scirpus juncoides
  Herbicidal effect grade, B: Scirpus juncoides: 4 (Herbicidal ratio of 70% or higher and lower than 90%)
Avena fatua
  I: Avena fatua, herbicidal effect (criteria 0-5): 5 (Herbicidal ratio of 90% or more (almost completely withered))
Lolium multiflorum Lam.
  K: Lolium multiflorum Lam., herbicidal effect (criteria 0-5): 5 (Herbicidal ratio of 90% or more (almost completely withered))
Cyperus difformis
  herbicidal effect on E, grade 0-5: 5 (Herbicidal ratio of 90% or more (almost completely withered))
soybean
  d (soybean) effect on crop grade: 0 (Herbicidal ratio of 5% or lower (almost no effect))
[1]
  effect on crop b (directly sowed rice plant), grade 0-5: 5 (Herbicidal ratio of 90% or more (almost completely withered))
[2]
  Herbicidal effect grade, A: Echinochloa oryzacola Vasing.: 5 (Herbicidal ratio of 90% or more (almost completely withered))
corn
  c: corn, effect on crop (criteria 0-5): 4 (Herbicidal ratio of 70% or higher and lower than 90%)
rice
  b (directly sowed rice plant) effect on crop grade: 5 (Herbicidal ratio of 90% or more (almost completely withered))
Transplanted rice plant
  Effect grade on crop, a: transplanted rice plant: 5 (Herbicidal ratio of 90% or more (almost completely withered))
wheat
  e (wheat) effect on crop grade: 4 (Herbicidal ratio of 70% or higher and lower than 90%)

## CC(=O)CC1CC(O)=C(c2c(C)cc(Oc3ccccc3)cc2C)C1=O (centres unmarked) [7-014]
Chenopodium album
  O: Chenopodium album, herbicidal effect (criteria of Test Example 1): 0 (Herbicidal ratio of 5% or lower (almost no effect))
Avena fatua
  I: Avena fatua, herbicidal effect (criteria of Test Example 1): 1 (Herbicidal ratio of 5% or higher and lower than 20%)
Lolium multiflorum Lam.
  K: Lolium multiflorum Lam., herbicidal effect (criteria of Test Example 1): 5 (Herbicidal ratio of 90% or more (almost completely withered))
Cyperus difformis
  herbicidal effect on E, grade 0-5: 2 (Herbicidal ratio of 20% or higher and lower than 40%)
soybean
  Effect on crop grade, d: soybean: 0 (Herbicidal ratio of 5% or lower (almost no effect))
[1]
  effect on crop b (directly sowed rice plant), grade 0-5: 5 (Herbicidal ratio of 90% or more (almost completely withered))
corn
  c: corn, effect on crop (criteria of Test Example 1): 3 (Herbicidal ratio of 40% or higher and lower than 70%)
rice
  Effect on crop grade, b: directly sowed rice plant: 4 (Herbicidal ratio of 70% or higher and lower than 90%)
wheat
  Effect on crop grade, e: wheat: 0 (Herbicidal ratio of 5% or lower (almost no effect))

## CC(=O)CC1CC(O)=C(c2c(C)cc(-c3ccc(OC(F)(F)F)cc3)cc2C)C1=O (centres unmarked) [7-016]
Chenopodium album
  O: Chenopodium album, herbicidal effect (criteria of Test Example 1): 0 (Herbicidal ratio of 5% or lower (almost no effect))
Avena fatua
  I: Avena fatua, herbicidal effect (criteria of Test Example 1): 0 (Herbicidal ratio of 5% or lower (almost no effect))
Lolium multiflorum Lam.
  K: Lolium multiflorum Lam., herbicidal effect (criteria of Test Example 1): 0 (Herbicidal ratio of 5% or lower (almost no effect))
Cyperus difformis
  herbicidal effect on E, grade 0-5: 0 (Herbicidal ratio of 5% or lower (almost no effect))
soybean
  Effect on crop grade, d: soybean: 0 (Herbicidal ratio of 5% or lower (almost no effect))
[1]
  effect on crop b (directly sowed rice plant), grade 0-5: 0 (Herbicidal ratio of 5% or lower (almost no effect))
corn
  c: corn, effect on crop (criteria of Test Example 1): 0 (Herbicidal ratio of 5% or lower (almost no effect))
rice
  Effect on crop grade, b: directly sowed rice plant: 0 (Herbicidal ratio of 5% or lower (almost no effect))
wheat
  Effect on crop grade, e: wheat: 0 (Herbicidal ratio of 5% or lower (almost no effect))

## CC(=O)CC1CC(O)=C(c2c(C)cc(-c3ncccn3)cc2C)C1=O (centres unmarked) [7-017]
Chenopodium album
  O: Chenopodium album, herbicidal effect (criteria of Test Example 1): 0 (Herbicidal ratio of 5% or lower (almost no effect))
Avena fatua
  I: Avena fatua, herbicidal effect (criteria of Test Example 1): 0 (Herbicidal ratio of 5% or lower (almost no effect))
Lolium multiflorum Lam.
  K: Lolium multiflorum Lam., herbicidal effect (criteria of Test Example 1): 3 (Herbicidal ratio of 40% or higher and lower than 70%)
Cyperus difformis
  herbicidal effect on E, grade 0-5: 4 (Herbicidal ratio of 70% or higher and lower than 90%)
soybean
  Effect on crop grade, d: soybean: 0 (Herbicidal ratio of 5% or lower (almost no effect))
[1]
  effect on crop b (directly sowed rice plant), grade 0-5: 5 (Herbicidal ratio of 90% or more (almost completely withered))
corn
  c: corn, effect on crop (criteria of Test Example 1): 0 (Herbicidal ratio of 5% or lower (almost no effect))
rice
  Effect on crop grade, b: directly sowed rice plant: 0 (Herbicidal ratio of 5% or lower (almost no effect))
wheat
  Effect on crop grade, e: wheat: 0 (Herbicidal ratio of 5% or lower (almost no effect))
